Assay results as given in US20220089540A1 (Board of Trustees of Michigan State University, priority 2019, published 2022).
“And” between values parts separate entries of the source, which are not always exact repeats. Equal entries are not always repeated. Where two headings read alike, the source gives them in different places.

Legend:
[1] = test system: inducible nitric oxide synthase (iNOS); experiment: iNOS suppression / NO assay in LPS-stimulated macrophages or RAW264.7 cells (Griess reaction); format: cell-based, mouse; settings: Mus musculus; for activity at 0.125 µM / activity at 0.5 µM: RAW264.7, read-out: NO Assay; for activity at 0.3 µM: RAW264.7, 24 h
Procedure: Macrophages or RAW264.7 like-cells were treated with various concentrations of rexinoids and stimulated with lipopolysaccaride (LPS) to activate inducible nitric oxide synthase (iNOS) to produce nitric oxide. This in vitro iNOS assay was rapid, reproducible, quantitative and predictive. Nitric oxide is implicated in the apoptosis of cancer cells via regulation of RXRs. There is a tight correlation between the % reduction of iNOS and efficacy in preclinical lung cancer models. Lower numbers indicate higher efficacy.
RAW264.7 cells were incubated with 300 nM rexinoids and stimulated with 1-2 ng/ml lipopolysaccaride (LPS) for 24 hours to activate inducible nitric oxide synthase (iNOS) to produce nitric oxide. Nitric oxide released into the media was measured by the Griess reaction.
Also, for Table 6, the iNOS suppression is the percent of the LPS-stimulated control where the compounds were measured at 100 nM or 300 nM.
Macrophages or RAW264.7 cells were treated with various concentrations of rexinoids listed in Table 7 and stimulated with lipopolysaccaride (LPS) to activate inducible nitric oxide synthase (iNOS) to produce nitric oxide. Nitric oxide (NO) is implicated in the apoptosis of cancer cells via regulation of RXRs. There is a tight correlation between the % reduction of iNOS and efficacy in preclinical lung cancer models. The in vitro iNOS assay is rapid, reproducible, quantitative and predictive, as NO production is measured in culture medium using the Griess reaction. Values are either presented as % inhibition or IC50 values.

PD-L1 = PD-L1 induction in macrophages or RAW264.7 cells with cancer cell conditioned media (flow cytometry); format: cell-based, mouse; settings: for PD-L1: Table 2, Control 39.8, higher numbers indicate better upregulation; for PD-L1 Levels: Table 4, Control 43.3
Procedure: RAW 264.7 mouse macrophage-like (ATCC) and E18-14C-27 (Wu et al., Cancer Res. 62, 6376-6380 (2002)) cells were cultured in DMEM supplemented with 10% fetal bovine serum (FBS). RAW 264.7 cells were cultured at 50000/well in a 6 well plate for 24 hours to determine PD-L1 levels. E18-14C-27 cells were cultured for 72 hours in the presence of LG268 for protein levels. Conditioned media was collected from E18-14C-27 at 60-70% confluence for 24 hours; media was then collected and centrifuged at 900 rpm for 5 minutes to eliminate any cell debris.
For PD-L1 staining, RAW 264.7 cells were plated at 25000 cells/ml in 6 well plates for 24 hours before adding conditioned media from E18-14C-27 and LG268. RAW 264.7 cells were cultured for additional 24 hours with E18-14C-27 conditioned media and LG268. […] THP-1 cells were stained and analyzed for the levels of PD-L1 following the same protocol.
Inhibitory receptors on lymphocytes such as PD-1 (programmed cell death protein 1) are important immune checkpoints that protect against autoimmunity as the interaction between PD-L1 (ligand) and the PD-1 receptor expressed on immune cells suppresses T cell activity. Immuno-oncology is revolutionizing cancer treatment, and enormous research efforts are ongoing to identify drugs that upregulate PD-L1 so that they can be combined with checkpoint inhibitors to boost efficacy. Macrophages or RAW264.7 cells are treated with conditioned media from cancer cells and rexinoids, and PD-L1 expression determined by flow cytometry. Higher numbers indicate better upregulation of PD-LI.
Using methods described herein, macrophages or RAW264.7 cells were treated with selected rexinoids and with conditioned media from cancer cells. Structures of the rexinoids are shown below.
PD-L1 expression was determined by flow cytometry.

SREBP = SREBP induction in human liver (HepG2) cells, RT-PCR; format: cell-based; set-up: key to SREBP: fold induction vs DMSO control; settings: for SREBP / fold induction at 0.3 µM: 300 nM; for SREBP: Control 1.00, lower numbers indicate better safety, Table 2; for SREBP activation: fold induction compared to DMSO, several values per cell, Table 6; for fold induction at 0.3 µM: human, HepG2 cells (human liver carcinoma), HepG2, Table 5, read-out: Safety SREBP mRNA fold induction at 300 nM
Procedure: The SREBP transcription factor is involved in triglyceride synthesis, and its activation correlates with increased triglycerides in vivo. […] Lower numbers indicate better safety. […] Lower numbers indicate better safety. Also, for Table 6, SREBP activation was measured as fold induction compared to DMSO, where a lower value indicates the compound is an improvement over a control.

[2] = test system: mammary gland tumors of MMTV-Neu mice; experiment: MMTV-Neu mouse model of HER2 positive breast cancer, rexinoid in diet; settings: 100 mg/kg diet; LG268 5 days, CW-V-125 10 days; western blot and/or immunohistochemistry
Procedure: Tumors or mammary glands were homogenized in EBC buffer (1M Tris pH 8, 5M NaCl) with the same protease inhibitors and 10% NP-40 and incubated on ice for 30 min. Protein concentrations were determined by the BCA assay (Sigma-Aldrich). Proteins were resolved by SDS-PAGE, transferred to a nitrocellulose membrane and analyzed with the following antibodies: vinculin, p-STAT1, p-STAT3, p-STAT5 and mouse and rabbit secondary antibodies (Cell Signaling); PD-1, CD206 (Abcam); PD-L1 (R&D). ImageJ was used to quantify the immunoblots, and results were plotted and statistically analyzed using Prism 6. All images shown are representative of 3 independent experiments.
One third of the tumor, mammary gland and spleen removed from MMTV-neu or MMTV-PyMT mice were minced separately and incubated in digestion media consisting of collagenase (300 U/ml, Sigma), dispase (1 U/ml, Worthington), and DNAse (2 U/ml, Calbiochem) for 30 minutes at 37° C. with stirring. Cells were then passed through a 40 μm cell strainer (BD Falcon), and red blood cells eliminated with lysis solution. […] Propidium iodide staining was used to exclude dead cells.
One third of the tumor, spleen and one mammary was removed from MMTV-neu and PyMT mice and fixed in 10% phosphate-buffered formalin for 48 hours, embedded in paraffin blocks, and sectioned (5-6 μm). Hydrogen peroxide was used to quench endogenous peroxidase activity. Sections were immunostained with antibodies raised against CD206 (1:200, Abcam), Gr1 (1:40, BM8, R&D), CD8 (1:40, Biolegend), FOXP3 (1:50, EBiosciences), PD-1 (1:100, Abcam), PD-L1 (1:50, Abcam), cleaved caspase 3 (Cell Signaling) and visualized with biotinylated anti-rabbit or anti-rat secondary antibodies (Cell Signaling or Vector Labs). Signal was detected using a DAB substrate (Cell Signaling) following the manufacturer's recommendations. Sections were counterstained with hematoxylin (Vector Labs).
Both rexinoid treatments were 100 mg/kg of diet, which is equivalent to 25 mg/kg of body weight (FIG. 1B).

[3] = at 300 nM, percent of the LPS-stimulated control, lower is better, Table 6, read-out: iNOS suppression

Structure (SMILES): CCN(c1cc(C(F)(F)F)cc(C(F)(F)F)c1)c1ccc(C(=O)O)cn1 [Compound 15, 6-{[3,5-bis(trifluoromethyl)phenyl](ethyl)amino}pyridine-3-carboxylic Acid]
- activity at 0.125 µM [1]: 87%
- activity at 0.5 µM [1]: 27.9%
- PD-L1 (PD-L1; 100 nM): 34.8
- SREBP (SREBP): 1.11

Structure (SMILES): C=C(c1ccc(C(=O)O)cc1)c1cc2c(cc1C)CCCC2(C)C
- activity at 0.3 µM [1, 3]: 55%
- SREBP activation (SREBP): 2.0 fold induction

Structure (SMILES): CCN(c1ccc(C(=O)O)cn1)c1cc2c(cc1C)C(C)(C)CCC2(C)C [CW-V-125]
- PD-L1 expression in tumors vs control [2]: increases
- PD-L1 Levels (PD-L1; 100 nM): 72.5
- PD-L1 Levels (PD-L1; 1000 nM): 69.9

Structure (SMILES): CCCN(c1cc(C(C)(C)C)cc(C(C)(C)C)c1)c1ccc(C(=O)O)cn1 [drawing 77]
- fold induction at 0.3 µM (SREBP): 2.15 ± 0.7

Structure (SMILES): CC(C)(C)c1cc(N(CC2CC2)c2ccc(C(=O)O)cn2)cc(C(C)(C)C)c1 [Compound 14, 6-[(cyclopropylmethyl)(3,5-di-tert-butylphenyl)amino]pyridine-3-carboxylic Acid]
- activity at 0.125 µM [1]: 78.2%
- activity at 0.5 µM [1]: 25.9%
- PD-L1 (PD-L1; 100 nM): 46.2
- SREBP (SREBP): 2.37

Structure (SMILES): CC(C)(C)c1cc(-n2c(C(F)(F)F)nc3cc(C(=O)O)ccc32)cc(C(C)(C)C)c1 [drawing 69]
- fold induction at 0.3 µM (SREBP): 1.58 ± 0.2

Structure (SMILES): CC(C)(C)c1cc(-n2c(C(F)(F)F)nc3cc(C(=O)O)ccc32)cc(C(C)(C)C)c1 [Compound 7, 1-(3,5-di-tert-butylphenyl)-2-(trifluoromethyl)-1H-1,3-benzodiazole-5-carboxylic Acid]
- activity at 0.3 µM ([1]; read-out: iNOS (300 nM)): 55%
- activity at 0.125 µM [1]: 38.7%
- activity at 0.5 µM [1]: 23.6%
- PD-L1 (PD-L1; 100 nM): 44.2
- SREBP (SREBP): 1.57

Structure (SMILES): CCN(c1cc(C(C)(C)C)cc(C(C)(C)C)c1)c1ccc(C(=O)O)cn1 [Compound 9, 6-[(3,5-di-tert-butylphenyl)(ethyl)amino]pyridine-3-carboxylic Acid]
- activity at 0.3 µM ([1]; read-out: iNOS (300 nM)): ~25%
- activity at 0.125 µM [1]: 76.3%
- activity at 0.5 µM [1]: 26.8%
- PD-L1 (PD-L1; 100 nM): 39.7
- SREBP (SREBP): 2.70

Structure (SMILES): C=C(c1ccc(C(=O)O)cc1)c1cc(C(C)C)c(OCC(C)C)cc1C [drawing 71]
- fold induction at 0.3 µM (SREBP): 1.67 ± 0.2

Structure (SMILES): CC(C)(C)c1cc(N(Cc2ccccc2)c2ccc(C(=O)O)cn2)cc(C(C)(C)C)c1 [drawing 93]
- fold induction at 0.3 µM (SREBP): 1.94 ± 0.04

Structure (SMILES): CCN(c1ccc2c(c1)C(C)(C)CCC2(C)C)c1ncc(C(=O)O)cn1 [CW-V-127]
- PD-L1 Levels (PD-L1; 100 nM): 65.1
- PD-L1 Levels (PD-L1; 1000 nM): 64.5

Structure (SMILES): CCN(c1cc(C(F)(F)F)cc(C(F)(F)F)c1)c1ccc(C(=O)O)cn1 [drawing 79]
- fold induction at 0.3 µM (SREBP): 0.96 ± 0.5

Structure (SMILES): Cc1cc2c(cc1C1(c3ncc(C(=O)O)cn3)CC1)C(C)(C)CCC2(C)C [drawing 63]
- fold induction at 0.3 µM (SREBP): 1.17 ± 0.1

Structure (SMILES): CC(C)CN(c1cc(C(C)(C)C)cc(C(C)(C)C)c1)c1ccc(C(=O)O)cn1 [drawing 82]
- fold induction at 0.3 µM (SREBP): 1.49 ± 0.6

Structure (SMILES): CC(C)CN(c1cc(C(C)(C)C)cc(C(C)(C)C)c1)c1ncc(C(=O)O)cn1
- fold induction at 0.3 µM (SREBP): 2.46 ± 0.5

Structure (SMILES): CCN(c1ccc(C(=O)O)cn1)c1cc(C(C)(C)C)ccc1C [drawing 72]
- fold induction at 0.3 µM (SREBP): 1.59 ± 0.5

Structure (SMILES): CCN(c1ccc(C(=O)O)cc1)c1cc(C(C)(C)C)c(OC)c(C(C)(C)C)c1 [drawing 81]
- fold induction at 0.3 µM (SREBP): 1.63 ± 0.3

Structure (SMILES): CCN(c1cc(C(C)(C)C)cc(C(C)(C)C)c1)c1ncc(C(=O)O)cn1 [drawing 66]
- fold induction at 0.3 µM (SREBP): 1.38 ± 0.4

Structure (SMILES): CCOc1c(N(CC)c2ccc(C(=O)O)cc2)cc(C(C)(C)C)cc1C(C)(C)C [drawing 107]
- activity at 0.3 µM [1, 3]: 60%
- SREBP activation (SREBP): 2.4 fold induction

Structure (SMILES): CC(/C=C/[C@@H]1C[C@]1(C)c1ccc2c(c1)C(C)(C)CCC2(C)C)=C\C(=O)O [VTP194204]
- PD-L1 Levels (PD-L1; 100 nM): 63.8
- PD-L1 Levels (PD-L1; 1000 nM): 70.9

Structure (SMILES): CCN(c1ccc(C(=O)O)cn1)c1cc(C(C)(C)C)ccc1C [Compound 12, 6-[(5-tert-butyl-2-methylphenyl)(ethyl)amino]pyridine-3-carboxylic Acid]
- activity at 0.125 µM [1]: 44.2%
- activity at 0.5 µM [1]: 16.7%
- PD-L1 (PD-L1; 100 nM): 45.8
- SREBP (SREBP): 1.69

Structure (SMILES): Cc1ccc(C(C)(C)C)cc1N(c1ccc(C(=O)O)cn1)C(C)C
- fold induction at 0.3 µM (SREBP): 0.98 ± 0.06

Structure (SMILES): C=C(c1ccc(C(=O)O)cc1)c1cc(C(C)(C)C)cc(C(C)(C)C)c1 [drawing 76]
- fold induction at 0.3 µM (SREBP): 1.12 ± 0.5

Structure (SMILES): CC(C)N(c1cc(C(C)(C)C)cc(C(C)(C)C)c1)c1ccc(C(=O)O)cn1
- fold induction at 0.3 µM (SREBP): 1.65 ± 0.1

Structure (SMILES): CCCCN(c1cc(C(C)(C)C)cc(C(C)(C)C)c1)c1ccc(C(=O)O)cn1 [drawing 83]
- fold induction at 0.3 µM (SREBP): 5.6 ± 3.6

Structure (SMILES): CCOc1c(N(CC)c2ccc(C(=O)O)cc2)cc(C(C)(C)C)cc1C(C)(C)C [drawing 67]
- fold induction at 0.3 µM (SREBP): 1.59 ± 0.2

Structure (SMILES): CCN(c1ccc(C(=O)O)cn1)c1cc(C(C)(C)C)ccc1C [drawing 112]
- activity at 0.3 µM [1, 3]: 60%
- SREBP activation (SREBP): 2.7 fold induction and 2.2 fold induction

Structure (SMILES): Cc1ccc(C(C)(C)C)cc1N(CC(C)C)c1ccc(C(=O)O)cn1
- fold induction at 0.3 µM (SREBP): 4.93 ± 2.7

Structure (SMILES): C=C(c1ccc(C(=O)O)cc1)c1cc(C(C)(C)C)ccc1OCC [drawing 108]
- activity at 0.3 µM [1, 3]: 67%
- SREBP activation (SREBP): 2.1 fold induction

Structure (SMILES): CCCCN(c1cc(C(C)(C)C)cc(C(C)(C)C)c1)c1ccc(C(=O)O)cn1 [drawing 123]
- SREBP activation (SREBP): 5.3 fold induction

Structure (SMILES): CC(C)(C)c1cc(-n2c(C(F)(F)F)nc3cc(C(=O)O)ccc32)cc(C(C)(C)C)c1 [drawing 109]
- activity at 0.3 µM [1, 3]: 45%
- SREBP activation (SREBP): 3.4 fold induction and 2.1 fold induction

Structure (SMILES): CC(C)CN(c1cc(C(F)(F)F)cc(C(F)(F)F)c1)c1ccc(C(=O)O)cn1
- fold induction at 0.3 µM (SREBP): 1 ± 0.03

Structure (SMILES): CC(C)(C)c1cc(N(CC2CC2)c2ccc(C(=O)O)cn2)cc(C(C)(C)C)c1 [drawing 78]
- fold induction at 0.3 µM (SREBP): 2.48 ± 1.8

Structure (SMILES): CC(C)(C)c1cc(N(CC2CC2)c2ncc(C(=O)O)cn2)cc(C(C)(C)C)c1
- fold induction at 0.3 µM (SREBP): 1.46 ± 0.2

Structure (SMILES): CCN(c1ccc(C(=O)O)cc1)c1cc(C(C)(C)C)cc(C(C)(C)C)c1 [drawing 64]
- fold induction at 0.3 µM (SREBP): 1.37 ± 0.3

Structure (SMILES): CCCN(c1cc(C(C)(C)C)cc(C(C)(C)C)c1)c1ncc(C(=O)O)cn1
- fold induction at 0.3 µM (SREBP): 1.25 ± 0.1

Structure (SMILES): CCN(c1ccc(C(=O)O)cc1)c1cc(C(C)C)c(OCC(C)C)cc1C [drawing 80]
- fold induction at 0.3 µM (SREBP): 1.45 ± 0.2
